experiment: Assay Measuring Activity of Test Compounds on Viral Production from HepAD38 Cells: HepAD38 cells grown in a T-150 flask (Corning, cat #: 430825) with Growth Medium (DMEM/F12 (1:1) (Hyclone, cat #: SH30023.02), 1× Pen/Strep (Invitrogen, cat #: 15140-122), 10% FBS (Tissue Culture Biologics, cat #: 101), 250 μg/mL G418 (Alfa Aesar, cat #: J62671), 1 μg/mL Tetracycline (Teknova, cat #: T3320)) were detached with 0.25% trypsin-EDTA to (Invitrogen, cat #: 25200-056). Tetracycline-free treatment medium (15 mL DMEM/F12 (1:1) 1× Pen/step, with 2% FBS, Tet-system approved (Clontech, cat #: 631106) were then added to mix, transferred into a 50 ml conical tube (Falcon, cat #: 21008-918,) and spun at 1300 rpm for 5 min. Pelleted cells were then re-suspended/washed with 50 mL of 1×DPBS (Invitrogen, cat #: 14190-136) 2 times and 50 mL treatment medium twice. HepAD38 cells were then re-suspended with 10 mL of treatment medium, syringed and counted. Wells of 96-well clear bottom TC plate (Corning, cat #: 3904,) were seeded at 50,000 cells/well in 180 μL of treatment medium, and 20 μL of either 10% DMSO (Sigma, cat #: D4540) as controls or a 10× solution of test compounds in 10% DMSO in treatment media was added for a final compound concentration starting at 10 μM, and plates were incubated in 5% CO2 incubator at 37° C. for 5 days.Subsequently viral load production was assayed by quantitative PCR (qPCR) of the HBV core sequence. PCR reaction mixture containing forward primers HBV-f 5′-CTGTGCCTTGGGTGGCTTT-3′ (IDT DNA), Reverse primers HBV-r 5′-[…]-3′ (IDT DNA), Fluorescent TaqMan™ Probes HBV-probe 5′-FAM/AGCTCCAAA/ZEN/[…]/3IABkFQ-3′ (IDT DNA), 10 μL/well of PerfeCTa® qPCR ToughMix® (Quanta Biosciences, Cat #: 95114-05K), and 6 μL/well of DEPC water (Alfa Aesar, cat #: J62087) was prepared. […] of supernatant was added to 16 μL of the reaction mixture in a qPCR plate (Applied Biosytems, Cat #: 4309849), sealed with a film (Applied Biosystems, Cat #: 4311971), centrifuged for a few seconds, and subsequently run on an Applied Biosystems VIIA7. The PCR mixture was incubated at 45° C. for 5 min, then 95° C. for 10 min, followed by 40 cycles of 10 seconds at 95° C. and 20 seconds at 60° C. Viral load was quantified against known HBV DNA standards by using ViiA™ 7 Software. Viral load in the supernatant from wells with treated cells were compared against viral load in supernatant from DMSO control wells (>3 per plate). Cell viability assay was performed with CellTiter-Glo Luminescent Cell Viability Assay (Promega, cat #: G7573) with modification. Mixed appropriate amount of CellTiter-Glo (CTG) 1×DPBS in a 1:1 ratio, added 100 uL of the mixture to each well followed completely removal of all supernatant in each well without touching cell surface. Incubated the plate at room temperature for 10 min on an orbital shaker, and then read the plate with a plate reader (TECAN M1000 or Envision).; details: not given

Structure (SMILES) | EC50 [nM]
COc1ccc([C@H]2CC[C@H](c3nn(C)c(N)c3C(=O)Nc3ccc(F)c(Cl)c3)C2)cc1 | < 100

same assay, conditions: HePAD38

Structure (SMILES) | EC50
Cn1nc(C2CC3CC(O)(C(=O)NC4CC4)CC3C2)c(C(=O)Nc2ccc(F)c(Cl)c2)c1N (stereo not given) | in the range around 300 nM
Cn1nc([C@@H]2CC3CNC(=O)C[C@@H]3C2)c(C(=O)Nc2ccc(F)c(Cl)c2)c1N (stereo not given in full) | in the range around 300 nM
COc1ccc([C@H]2CC[C@H](c3nn(C)c(N)c3C(=O)Nc3ccc(F)c(Cl)c3)C2)cc1 | < 100 nM
Cn1nc([C@H]2CC3CC(O)(C[S+]([O-])CC(F)(F)F)C[C@@H]3C2)c(C(=O)Nc2ccc(F)c(Cl)c2)c1N (stereo not given in full) | < 100 nM
CCC1OCC2(CC3C[C@H](c4nn(C)c(N)c4C(=O)Nc4ccc(F)c(Cl)c4)C[C@H]3C2)O1 (stereo not given in full) | < 100 nM
COc1cc(-c2cnn(C)c2)ccc1C1CCC(c2nn(C)c(N)c2C(=O)Nc2ccc(F)c(Cl)c2)C1 (stereo not given) | in the range around 300 nM
Cn1nc(C2CCC(c3cnc(C(F)(F)F)s3)C2)c(C(=O)Nc2ccc(F)c(Cl)c2)c1N (stereo not given) | in the range around 5250 nM
Cn1nc(C2CC3CC(OC(C)(C)C)CC3C2)c(C(=O)Nc2ccc(F)c(Cl)c2)c1N (stereo not given) | < 100 nM
CN1CC2CC(c3nn(C)c(N)c3C(=O)Nc3ccc(F)c(Cl)c3)CC2C1 (stereo not given) | in the range around 5250 nM
CNC(=O)N1CC2CC(c3nn(C)c(N)c3C(=O)Nc3ccc(F)c(Cl)c3)CC2C1 (stereo not given) | < 100 nM
COc1cc(-c2cscn2)ccc1C1CCC(c2nn(C)c(N)c2C(=O)Nc2ccc(F)c(Cl)c2)C1 (stereo not given) | < 100 nM
COc1cc(-c2c[nH]cn2)ccc1[C@H]1CC[C@@H](c2nn(C)c(N)c2C(=O)Nc2ccc(F)c(Cl)c2)C1 | in the range around 300 nM
Cn1cc([C@@H]2CC[C@@H](c3nn(C)c(N)c3C(=O)Nc3ccc(F)c(Cl)c3)C2)cn1 | in the range around 300 nM
CC(N1CC2CC(c3nn(C)c(N)c3C(=O)Nc3ccc(F)c(Cl)c3)CC2C1)C(F)(F)F (stereo not given) | < 100 nM
Cn1nc([C@@H]2CC3COC(=O)C[C@@H]3C2)c(C(=O)Nc2ccc(F)c(Cl)c2)c1N (stereo not given in full) | in the range around 300 nM
Cn1cc([C@H]2CC[C@@H](c3nn(C)c(N)c3C(=O)Nc3ccc(F)c(Cl)c3)C2)cn1 | < 100 nM
COc1cc(C(=O)NCCS(C)(=O)=O)ccc1[C@H]1CC[C@@H](c2nn(C)c(N)c2C(=O)Nc2ccc(F)c(Cl)c2)C1 | in the range around 300 nM
Cn1nc(C2CC3CN(C(=O)N4CCCC4)CC3C2)c(C(=O)Nc2ccc(F)c(Cl)c2)c1N (stereo not given) | < 100 nM
Cn1nc([C@@H]2CC3CC(O)(CC(=O)O)C[C@H]3C2)c(C(=O)Nc2ccc(F)c(Cl)c2)c1N (stereo not given in full) | < 100 nM
CCS(=O)(=O)CC1(O)CC2C[C@@H](c3nn(C)c(N)c3C(=O)Nc3ccc(F)c(Cl)c3)C[C@H]2C1 (stereo not given in full) | < 100 nM
Cn1nc(C2CCN(c3ccccc3)C2)c(C(=O)Nc2ccc(F)c(Cl)c2)c1N (stereo not given) | in the range around 300 nM
CCN(CC)C1CC2CC(c3nn(C)c(N)c3C(=O)Nc3ccc(F)c(Cl)c3)CC2C1 (stereo not given) | in the range around 300 nM
Cn1cc([C@H]2CC[C@H](c3nn(C)c(N)c3C(=O)Nc3ccc(F)c(Cl)c3)C2)cn1 | in the range around 300 nM

Structure (SMILES) | EC50
Cn1nc(C2CC3CCCC3C2)c(C(=O)Nc2ccc(F)c(Cl)c2)c1N (stereo not given) | < 100 nM
Cn1nc([C@@H]2CC3CC(O)(CN4CCOCC4)C[C@H]3C2)c(C(=O)Nc2ccc(F)c(Cl)c2)c1N (stereo not given in full) | in the range around 300 nM
Cn1cc(C(=O)Nc2ccc(F)c(Cl)c2)c(C2CC3CC(O)(CS(C)(=O)=O)CC3C2)n1 (stereo not given) | in the range around 5250 nM
Cn1nc([C@@H]2CC3CC(O)(CSCCO)C[C@@H]3C2)c(C(=O)Nc2ccc(F)c(Cl)c2)c1N (stereo not given in full) | < 100 nM
Cn1nc([C@@H]2CC3CC(O)(C[S+]([O-])CC(F)(F)F)C[C@H]3C2)c(C(=O)Nc2ccc(F)c(Cl)c2)c1N (stereo not given in full) | < 100 nM
Cn1nc(C2CC3CC(C(N)=O)CC3C2)c(C(=O)Nc2ccc(F)c(Cl)c2)c1N (stereo not given) | < 100 nM
Cn1nc(C2CC3CNCC3C2)c(C(=O)Nc2ccc(F)c(Cl)c2)c1N (stereo not given) | in the range around 5250 nM
COc1cc(-c2nccn2C)ccc1[C@H]1CC[C@@H](c2nn(C)c(N)c2C(=O)Nc2ccc(F)c(Cl)c2)C1 | in the range around 300 nM
CN(C)S(=O)(=O)CC1(O)CC2CC(c3nn(C)c(N)c3C(=O)Nc3ccc(F)c(Cl)c3)CC2C1 (stereo not given) | < 100 nM
Cn1nc(C2CC3CN(S(C)(=O)=O)CC3C2)c(C(=O)Nc2ccc(F)c(Cl)c2)c1N (stereo not given) | < 100 nM
Cn1nc([C@@H]2CC3CNC(=O)C[C@H]3C2)c(C(=O)Nc2ccc(F)c(Cl)c2)c1N (stereo not given in full) | < 100 nM
Cn1nc([C@@H]2CC3CC(O)(CS(C)(=O)=O)C[C@@H]3C2)c(C(=O)Nc2ccc(F)c(Cl)c2)c1N (stereo not given in full) | < 100 nM
Cn1nc(C2CC3CC(NCCO)CC3C2)c(C(=O)Nc2ccc(F)c(Cl)c2)c1N (stereo not given) | in the range around 300 nM
CN(C1CC2CC(c3nn(C)c(N)c3C(=O)Nc3ccc(F)c(Cl)c3)CC2C1)S(C)(=O)=O (stereo not given) | < 100 nM
COc1cccc([C@@H]2CC[C@H](c3nn(C)c(N)c3C(=O)Nc3ccc(F)c(Cl)c3)C2)c1 | < 100 nM
Cn1nc(C2CC3CC(S(C)(=O)=O)CC3C2)c(C(=O)Nc2ccc(F)c(Cl)c2)c1N (stereo not given) | < 100 nM
Cn1nc([C@@H]2CC3CC(O)(CSCC(F)(F)F)C[C@H]3C2)c(C(=O)Nc2ccc(F)c(Cl)c2)c1N (stereo not given in full) | < 100 nM
CC(C)OCC1(O)CC2C[C@@H](c3nn(C)c(N)c3C(=O)Nc3ccc(F)c(Cl)c3)C[C@@H]2C1 (stereo not given in full) | in the range around 300 nM
Cn1nc(C2CC3CC(O)(CS(=O)(=O)CCCN4CCNC(=O)C4)CC3C2)c(C(=O)Nc2ccc(F)c(Cl)c2)c1N (stereo not given) | in the range around 5250 nM
COc1cc(-c2ncc[nH]2)ccc1[C@@H]1CC[C@@H](c2nn(C)c(N)c2C(=O)Nc2ccc(F)c(Cl)c2)C1 | < 100 nM
CN(C)C(=O)CC1(O)CC2CC(c3nn(C)c(N)c3C(=O)Nc3ccc(F)c(Cl)c3)CC2C1 (stereo not given) | < 100 nM
Cn1nc(C2CC3CC(NS(C)(=O)=O)CC3C2)c(C(=O)Nc2ccc(F)c(Cl)c2)c1N (stereo not given) | < 100 nM
Cn1nc(C2CC3CC(C)(O)CC3C2)c(C(=O)Nc2ccc(F)c(Cl)c2)c1N (stereo not given) | < 100 nM

Structure (SMILES) | EC50
Cn1nc(C2CC3CC(CC(N)=O)CC3C2)c(C(=O)Nc2ccc(F)c(Cl)c2)c1N (stereo not given) | < 100 nM
Cn1cc(C(=O)Nc2ccc(F)c(Cl)c2)c(C2CC3CC(=O)CC3C2)n1 (stereo not given) | in the range around 5250 nM
Cn1nc(C2CC3CC4(CNC(=O)C4)CC3C2)c(C(=O)Nc2ccc(F)c(Cl)c2)c1N (stereo not given) | < 100 nM
COc1cc(C(O)NCCN)ccc1C1CCC(c2nn(C)c(N)c2C(=O)Nc2ccc(F)c(Cl)c2)C1 (stereo not given) | in the range around 300 nM
Cn1nc([C@@H]2CC3CC(O)(CS(C)(=O)=O)C[C@H]3C2)c(C(=O)Nc2ccc(F)c(Cl)c2)c1N (stereo not given in full) | < 100 nM
Cn1nc(C2CCC(c3ccccc3)C2)c(C(=O)Nc2ccc(F)c(C#N)c2)c1N (stereo not given) | < 100 nM
Cn1nc([C@@H]2CC3CC(O)(CS(=O)(=O)C(C)(C)C)C[C@@H]3C2)c(C(=O)Nc2ccc(F)c(Cl)c2)c1N (stereo not given in full) | < 100 nM
Cn1nc([C@@H]2CC3CC(O)(CSCCO)C[C@H]3C2)c(C(=O)Nc2ccc(F)c(Cl)c2)c1N (stereo not given in full) | < 100 nM
COc1cc(-c2cn(C)cn2)ccc1[C@H]1CC[C@@H](c2nn(C)c(N)c2C(=O)Nc2ccc(F)c(Cl)c2)C1 | in the range around 300 nM
Cn1nc(C2CC3CN(C(=O)OC(C)(C)C)CC3C2)c(C(=O)Nc2ccc(F)c(Cl)c2)c1N (stereo not given) | < 100 nM
Cn1cc(-c2ccc([C@H]3CC[C@@H](c4nn(C)c(N)c4C(=O)Nc4ccc(F)c(Cl)c4)C3)cc2)cn1 | < 100 nM
Cn1nc(C2CCC(c3csc(C(F)(F)F)n3)C2)c(C(=O)Nc2ccc(F)c(Cl)c2)c1N (stereo not given) | in the range around 5250 nM
Cn1nc([C@@H]2CC3CC(O)(CC(=O)O)C[C@@H]3C2)c(C(=O)Nc2ccc(F)c(Cl)c2)c1N (stereo not given in full) | < 100 nM
Cn1nc([C@@H]2CC3CC(O)(CN4CCCCC4)C[C@@H]3C2)c(C(=O)Nc2ccc(F)c(Cl)c2)c1N (stereo not given in full) | in the range around 300 nM
Cn1nc([C@@H]2CC3C[S+]([O-])C[C@H]3C2)c(C(=O)Nc2ccc(F)c(Cl)c2)c1N (stereo not given in full) | in the range around 5250 nM
Cn1nc(C2CC3CC(O)(C(C)(C)O)CC3C2)c(C(=O)Nc2ccc(F)c(Cl)c2)c1N (stereo not given) | < 100 nM
CNC1CC2CC(c3nn(C)c(N)c3C(=O)Nc3ccc(F)c(Cl)c3)CC2C1 (stereo not given) | in the range around 300 nM
CC[S+]([O-])C1CC2CC(c3nn(C)c(N)c3C(=O)Nc3ccc(F)c(Cl)c3)CC2C1 (stereo not given) | < 100 nM
COc1cc(-c2cn(C)cn2)ccc1[C@@H]1CC[C@@H](c2nn(C)c(N)c2C(=O)Nc2ccc(F)c(Cl)c2)C1 | < 100 nM
Cn1nc([C@@H]2CC3CC(O)(CS(=O)(=O)CCCN4CCNCC4=O)C[C@@H]3C2)c(C(=O)Nc2ccc(F)c(Cl)c2)c1N (stereo not given in full) | in the range around 5250 nM
Cn1nc(C2CCC(c3cccnc3)C2)c(C(=O)Nc2ccc(F)c(Cl)c2)c1N (stereo not given) | < 100 nM
Cn1nc([C@@H]2CC3C[S+]([O-])C[C@@H]3C2)c(C(=O)Nc2ccc(F)c(Cl)c2)c1N (stereo not given in full) | in the range around 5250 nM
Cn1nc([C@@H]2CC3CC(O)(CSC(C)(C)C)C[C@H]3C2)c(C(=O)Nc2ccc(F)c(Cl)c2)c1N (stereo not given in full) | < 100 nM
